The values that follow come from publication PMC5218480 (PLoS ONE, 2017).

The subject of this assay is MV-4-11 cells. Put plainly: Gene expression microarray analysis (Affymetrix PrimeView) and GSEA. The format is cell-based, human. Also on record: RFU PODN (11730768_x_at) / Fold change /veh PODN (11730768_x_at) / RFU LINC00158 (11744669_a_at) / Fold change /veh LINC00158 (11744669_a_at) / RFU DUSP10 (11751237_a_at) / Fold change /veh DUSP10 (11751237_a_at) / RFU ID3 (11757404_x_at) / Fold change /veh ID3 (11757404_x_at) / RFU PLEKHG5 (11737974_s_at) / Fold change /veh PLEKHG5 (11737974_s_at) / RFU LRRC4B (11730491_at) / Fold change /veh LRRC4B (11730491_at) / RFU GIMAP4 (11747438_a_at) / Fold change /veh GIMAP4 (11747438_a_at) / RFU KRT8 (11758183_x_at) / Fold change /veh KRT8 (11758183_x_at) / RFU CNN1 (11734310_a_at) / Fold change /veh CNN1 (11734310_a_at) / RFU VPS37D (11726825_at) / Fold change /veh VPS37D (11726825_at) / RFU C10orf10 (11716522_x_at) / Fold change /veh C10orf10 (11716522_x_at) / RFU KIR2DL2 /// KIR2DL4 /// KIR2DL5A /// KIR2DL5B /// KIR2DS1 /// KIR2DS2 /// KIR2DS3 /// KIR2DS4 /// KIR3DL3 /// KIR3DL3 /// KIR3DS1 (11738374_at) / Fold change /veh KIR2DL2 /// KIR2DL4 /// KIR2DL5A /// KIR2DL5B /// KIR2DS1 /// KIR2DS2 /// KIR2DS3 /// KIR2DS4 /// KIR3DL3 /// KIR3DL3 /// KIR3DS1 (11738374_at) / RFU C1QL1 (11718748_at) / Fold change /veh C1QL1 (11718748_at) / RFU TMPRSS4 (11747572_a_at) / Fold change /veh TMPRSS4 (11747572_a_at) / RFU HAMP (11756126_x_at) / Fold change /veh HAMP (11756126_x_at) / RFU RNFT2 (11725882_a_at) / Fold change /veh RNFT2 (11725882_a_at) / RFU NR4A2 (11747474_a_at) / Fold change /veh NR4A2 (11747474_a_at) / RFU ABCC12 (11746883_a_at) / Fold change /veh ABCC12 (11746883_a_at) / RFU TMEM136 (11760407_x_at) / Fold change /veh TMEM136 (11760407_x_at) / RFU CLDN22 /// WWC2 (11732394_at) / Fold change /veh CLDN22 /// WWC2 (11732394_at) / RFU HLA-DPB1 (11760878_x_at) / Fold change /veh HLA-DPB1 (11760878_x_at) / RFU SPINT1 (11716480_a_at) / Fold change /veh SPINT1 (11716480_a_at) / RFU GAP43 (11754022_s_at) / Fold change /veh GAP43 (11754022_s_at) / RFU A4GNT (11735810_at) / Fold change /veh A4GNT (11735810_at) / RFU PRB3 (11715151_x_at) / Fold change /veh PRB3 (11715151_x_at) / RFU TUBB4B (11761932_at) / Fold change /veh TUBB4B (11761932_at) / RFU CAPN14 (11732068_a_at) / Fold change /veh CAPN14 (11732068_a_at) / RFU TMCC2 (11721928_a_at) / Fold change /veh TMCC2 (11721928_a_at) / RFU IRGQ (11745062_a_at) / Fold change /veh IRGQ (11745062_a_at) / RFU FAM174B (11720279_a_at) / Fold change /veh FAM174B (11720279_a_at) / RFU TMPRSS4 (11748680_a_at) / Fold change /veh TMPRSS4 (11748680_a_at) / RFU FAM212B (11763350_a_at) / Fold change /veh FAM212B (11763350_a_at) / RFU PLEKHG5 (11743358_a_at) / Fold change /veh PLEKHG5 (11743358_a_at) / RFU ZSCAN30 (11745921_a_at) / Fold change /veh ZSCAN30 (11745921_a_at) / RFU CMKLR1 (11741424_a_at) / Fold change /veh CMKLR1 (11741424_a_at) / RFU LOC101060620 /// MAPK8IP1 (11723275_at) / Fold change /veh LOC101060620 /// MAPK8IP1 (11723275_at) / RFU SPTSSB (11747773_x_at) / Fold change /veh SPTSSB (11747773_x_at) / RFU PRSS12 (11739890_at) / Fold change /veh PRSS12 (11739890_at) / RFU BIN1 (11741810_x_at) / Fold change /veh BIN1 (11741810_x_at) / RFU WNT11 (11732464_a_at) / Fold change /veh WNT11 (11732464_a_at) / RFU C10orf10 (11716521_a_at) / Fold change /veh C10orf10 (11716521_a_at) / RFU C5orf56 (11738089_at) / Fold change /veh C5orf56 (11738089_at) / RFU CYB561 (11721691_x_at) / Fold change /veh CYB561 (11721691_x_at) / RFU ANKRD19P (11752326_a_at) / Fold change /veh ANKRD19P (11752326_a_at) / RFU OR2T12 /// OR2T33 /// OR2T8 (11738714_s_at) / Fold change /veh OR2T12 /// OR2T33 /// OR2T8 (11738714_s_at) / RFU VCAN (11748164_a_at) / Fold change /veh VCAN (11748164_a_at) / RFU JSRP1 (11732532_at) / Fold change /veh JSRP1 (11732532_at) / RFU KRTAP10-11 (11738290_x_at) / Fold change /veh KRTAP10-11 (11738290_x_at) / RFU MYO3A (11730013_a_at) / Fold change /veh MYO3A (11730013_a_at) / RFU EBF3 (11725865_a_at) / Fold change /veh EBF3 (11725865_a_at) / RFU CAMK2N1 (11719241_x_at) / Fold change /veh CAMK2N1 (11719241_x_at) / RFU C5orf56 (11738088_a_at) / Fold change /veh C5orf56 (11738088_a_at) / RFU OLFML3 (11715873_a_at) / Fold change /veh OLFML3 (11715873_a_at) / RFU LOC100653217 /// NTM (11731650_a_at) / Fold change /veh LOC100653217 /// NTM (11731650_a_at) / RFU MAPK11 (11762145_a_at) / Fold change /veh MAPK11 (11762145_a_at) / RFU FIZ1 (11724087_x_at) / Fold change /veh FIZ1 (11724087_x_at) / RFU OASL (11726364_x_at) / Fold change /veh OASL (11726364_x_at) / RFU SOX15 (11748057_x_at) / Fold change /veh SOX15 (11748057_x_at) / RFU CD79A (11719716_a_at) / Fold change /veh CD79A (11719716_a_at) / RFU HIST1H1D (11736915_at) / Fold change /veh HIST1H1D (11736915_at) / RFU CASKIN2 (11723855_a_at) / Fold change /veh CASKIN2 (11723855_a_at) / RFU LOC730098 (11760151_x_at) / Fold change /veh LOC730098 (11760151_x_at) / RFU OR4N2 (11742367_at) / Fold change /veh OR4N2 (11742367_at) / RFU PRRT2 (11749266_a_at) / Fold change /veh PRRT2 (11749266_a_at) / RFU SNX32 (11753110_a_at) / Fold change /veh SNX32 (11753110_a_at) / RFU CDHR5 (11726645_a_at) / Fold change /veh CDHR5 (11726645_a_at) / RFU RCAN1 (11760418_a_at) / Fold change /veh RCAN1 (11760418_a_at) / RFU FAM167A (11723789_a_at) / Fold change /veh FAM167A (11723789_a_at) / RFU FAM26E (11764081_at) / Fold change /veh FAM26E (11764081_at) / RFU ISYNA1 (11749810_s_at) / Fold change /veh ISYNA1 (11749810_s_at) / RFU ACY1 (11761880_at) / Fold change /veh ACY1 (11761880_at) / RFU 11764098_at / Fold change /veh 11764098_at / RFU SAMD14 (11745864_x_at) / Fold change /veh SAMD14 (11745864_x_at) / RFU NPB (11741838_a_at) / Fold change /veh NPB (11741838_a_at) / RFU TMPRSS6 (11731388_a_at) / Fold change /veh TMPRSS6 (11731388_a_at) / RFU KRTAP10-2 (11738614_at) / Fold change /veh KRTAP10-2 (11738614_at) / RFU ARHGAP8 /// PRR5-ARHGAP8 (11727945_x_at) / Fold change /veh ARHGAP8 /// PRR5-ARHGAP8 (11727945_x_at) / RFU KRTAP5-7 /// NADSYN1 (11734609_at) / Fold change /veh KRTAP5-7 /// NADSYN1 (11734609_at) / RFU RASL12 (11751679_a_at) / Fold change /veh RASL12 (11751679_a_at) / RFU CDKN2B (11736163_a_at) / Fold change /veh CDKN2B (11736163_a_at) / RFU PRF1 (11729649_at) / Fold change /veh PRF1 (11729649_at) / RFU, ZNF638 /// ZNF638-IT1 / Fold change vs veh, ZNF638 /// ZNF638-IT1 / RFU, PANK3 / Fold change vs veh, PANK3 / RFU, SH3YL1 / Fold change vs veh, SH3YL1 / RFU, ZEB2 / Fold change vs veh, ZEB2 / RFU, NRIP1 / Fold change vs veh, NRIP1 / RFU, PTTG1IP / Fold change vs veh, PTTG1IP / RFU, CAPN2 / Fold change vs veh, CAPN2 / RFU, MED14 / Fold change vs veh, MED14 / RFU, SNORA58 / Fold change vs veh, SNORA58 / RFU, C1orf63 / Fold change vs veh, C1orf63 / RFU, LRRFIP1 / Fold change vs veh, LRRFIP1 / RFU, NDUFAF7 / Fold change vs veh, NDUFAF7 / RFU, SLC12A2 / Fold change vs veh, SLC12A2 / RFU, IBTK / Fold change vs veh, IBTK / RFU, ESF1 / Fold change vs veh, ESF1 / Fold change vs veh, TMEM50B / RFU, TAOK1 / Fold change vs veh, TAOK1 / RFU, ACBD3 / Fold change vs veh, ACBD3 / RFU, TMA16 / Fold change vs veh, TMA16 / RFU, RWDD3 / Fold change vs veh, RWDD3 / RFU, BCAT1 / Fold change vs veh, BCAT1 / RFU, EDEM3 / Fold change vs veh, EDEM3 / RFU, TMEM33 / Fold change vs veh, TMEM33 / RFU, WDR75 / Fold change vs veh, WDR75 / RFU, AHCTF1 / Fold change vs veh, AHCTF1 / RFU, TFRC / Fold change vs veh, TFRC / RFU, ZDHHC17 / Fold change vs veh, ZDHHC17 / RFU, NOM1 / Fold change vs veh, NOM1 / RFU, ARL8B / Fold change vs veh, ARL8B / RFU, ZBTB11 / Fold change vs veh, ZBTB11 / RFU, TAMM41 / Fold change vs veh, TAMM41 / RFU, KIAA1704 /// LOC100996395 / Fold change vs veh, KIAA1704 /// LOC100996395 / RFU, ING1 / Fold change vs veh, ING1 / RFU, TRMT61B / Fold change vs veh, TRMT61B / RFU, FUBP3 / Fold change vs veh, FUBP3 / RFU, TP53 / Fold change vs veh, TP53 / RFU, TNKS2 / Fold change vs veh, TNKS2 / RFU, ZFP14 / Fold change vs veh, ZFP14 / RFU, ACTR2 / Fold change vs veh, ACTR2 / RFU, PPP3R1 / Fold change vs veh, PPP3R1 / RFU, PIK3R1 / Fold change vs veh, PIK3R1 / RFU, HNRNPA1 / Fold change vs veh, HNRNPA1 / RFU, RNF170 / Fold change vs veh, RNF170 / RFU, ZNF28 / Fold change vs veh, ZNF28 / RFU, RNGTT / Fold change vs veh, RNGTT / RFU, OGT / Fold change vs veh, OGT / RFU, BRD1 / Fold change vs veh, BRD1 / RFU, MARS / Fold change vs veh, MARS / RFU, ZNF655 / Fold change vs veh, ZNF655 / RFU, FAHD1 / Fold change vs veh, FAHD1 / RFU, BDP1 / Fold change vs veh, BDP1 / RFU, LRRCC1 / Fold change vs veh, LRRCC1 / RFU, ARID1A / Fold change vs veh, ARID1A / RFU, ZNF146 / Fold change vs veh, ZNF146 / RFU, ZNF330 / Fold change vs veh, ZNF330 / RFU, GPN3 / Fold change vs veh, GPN3 / RFU, C9orf123 / Fold change vs veh, C9orf123 / RFU, N4BP2L2 / Fold change vs veh, N4BP2L2 / RFU, ARFIP1 / Fold change vs veh, ARFIP1 / RFU, FAM179B / Fold change vs veh, FAM179B / RFU, BCL10 / Fold change vs veh, BCL10 / RFU, UHRF1BP1L / Fold change vs veh, UHRF1BP1L / RFU, BET1 / Fold change vs veh, BET1 / RFU, CNOT2 / Fold change vs veh, CNOT2 / RFU, ZNF268 / Fold change vs veh, ZNF268 / Fold change vs veh, ZNF507 / RFU, DGCR2 / Fold change vs veh, DGCR2 / RFU, WDSUB1 / Fold change vs veh, WDSUB1 / Fold change vs veh, HSP90B1 /// MIR3652 / RFU, ADSS / Fold change vs veh, ADSS / RFU, GK / Fold change vs veh, GK / RFU, ZNF148 / Fold change vs veh, ZNF148 / RFU, TAF9 / Fold change vs veh, TAF9 / RFU, SLC1A5 / Fold change vs veh, SLC1A5 / RFU, SLMO2 / Fold change vs veh, SLMO2 / RFU, ABCC4 / Fold change vs veh, ABCC4 / RFU, LOC101060439 /// RAP1B / Fold change vs veh, LOC101060439 /// RAP1B / RFU, RFX7 / Fold change vs veh, RFX7 / RFU, GTPBP10 / Fold change vs veh, GTPBP10 / RFU, CNEP1R1 / Fold change vs veh, CNEP1R1 / RFU, BIVM-ERCC5 /// ERCC5 / Fold change vs veh, BIVM-ERCC5 /// ERCC5 / RFU, ILF3 / Fold change vs veh, ILF3 / RFU 11762660_at / Fold change /veh 11762660_at / RFU VCAN (11757783_s_at) / Fold change /veh VCAN (11757783_s_at) / RFU DDX43 (11728927_at) / Fold change /veh DDX43 (11728927_at) / RFU KRT8 (11758188_x_at) / Fold change /veh KRT8 (11758188_x_at) / RFU NKD1 (11759106_at) / Fold change /veh NKD1 (11759106_at) / RFU SRD5A1 (11742802_a_at) / Fold change /veh SRD5A1 (11742802_a_at) / RFU TPSAB1 /// TPSB2 (11721975_s_at) / Fold change /veh TPSAB1 /// TPSB2 (11721975_s_at) / RFU GSTM3 (11746129_a_at) / Fold change /veh GSTM3 (11746129_a_at) / RFU IL23R (11737362_x_at) / Fold change /veh IL23R (11737362_x_at) / RFU TMEM51 (11727254_a_at) / Fold change /veh TMEM51 (11727254_a_at) / RFU PIWIL2 (11732686_x_at) / Fold change /veh PIWIL2 (11732686_x_at) / RFU ORM1 (11744905_x_at) / Fold change /veh ORM1 (11744905_x_at) / RFU CCDC152 (11743942_at) / Fold change /veh CCDC152 (11743942_at) / RFU ECM1 (11717891_a_at) / Fold change /veh ECM1 (11717891_a_at) / RFU IL23R (11748794_a_at) / Fold change /veh IL23R (11748794_a_at) / RFU TNFAIP8L3 (11732012_x_at) / Fold change /veh TNFAIP8L3 (11732012_x_at) / RFU MBOAT4 (11741988_at) / Fold change /veh MBOAT4 (11741988_at) / RFU 11764193_at / Fold change /veh 11764193_at / RFU TMEM53 (11763286_at) / Fold change /veh TMEM53 (11763286_at) / RFU MAGEB2 (11727129_at) / Fold change /veh MAGEB2 (11727129_at) / RFU TMEM200A (11744735_a_at) / Fold change /veh TMEM200A (11744735_a_at) / RFU CCDC152 (11751479_a_at) / Fold change /veh CCDC152 (11751479_a_at) / RFU FAM211A (11726209_a_at) / Fold change /veh FAM211A (11726209_a_at) / RFU RGS16 (11746705_a_at) / Fold change /veh RGS16 (11746705_a_at) / RFU VCAN (11755009_s_at) / Fold change /veh VCAN (11755009_s_at) / RFU RHOB (11743442_s_at) / Fold change /veh RHOB (11743442_s_at) / RFU RGS16 (11720943_a_at) / Fold change /veh RGS16 (11720943_a_at) / RFU RGS16 (11720944_at) / Fold change /veh RGS16 (11720944_at) / RFU, VPS4B / Fold change vs veh, VPS4B / RFU, CREB1 / Fold change vs veh, CREB1 / RFU, DNAJC13 / Fold change vs veh, DNAJC13 / RFU, GNAQ / Fold change vs veh, GNAQ / RFU, CDK5R1 / Fold change vs veh, CDK5R1 / RFU, ZRANB3 / Fold change vs veh, ZRANB3 / RFU, CUL4A / Fold change vs veh, CUL4A / RFU, CCNY / Fold change vs veh, CCNY / RFU, UFL1 / Fold change vs veh, UFL1 / RFU, COG3 / Fold change vs veh, COG3 / RFU, DIAPH2 / Fold change vs veh, DIAPH2 / RFU, SKA2 / Fold change vs veh, SKA2 / RFU, AFF3 / Fold change vs veh, AFF3 / RFU, LMF1 / Fold change vs veh, LMF1 / RFU, IPO11 / Fold change vs veh, IPO11 / RFU, DFFB / Fold change vs veh, DFFB / RFU, FOXP1 / Fold change vs veh, FOXP1 / RFU, CARD8 / Fold change vs veh, CARD8 / RFU, STRN3 / Fold change vs veh, STRN3 / RFU, ADK / Fold change vs veh, ADK / RFU, RASSF2 / Fold change vs veh, RASSF2 / RFU, WIPF1 / Fold change vs veh, WIPF1 / RFU, LARP1B / Fold change vs veh, LARP1B / RFU, RASA1 / Fold change vs veh, RASA1 / RFU, RB1 / Fold change vs veh, RB1 / RFU, PPFIA1 / Fold change vs veh, PPFIA1 / RFU, MAT2A / Fold change vs veh, MAT2A / RFU, CCT5 / Fold change vs veh, CCT5 / RFU, WDR92 / Fold change vs veh, WDR92 / RFU, CUX1 / Fold change vs veh, CUX1 / RFU, TTC7A / Fold change vs veh, TTC7A / RFU, TMEM135 / Fold change vs veh, TMEM135 / RFU, DEPTOR / Fold change vs veh, DEPTOR / RFU, CPM / Fold change vs veh, CPM / RFU, DNAJB6 / Fold change vs veh, DNAJB6 / RFU, CACNA2D3 / Fold change vs veh, CACNA2D3 / RFU, DTX4 / Fold change vs veh, DTX4 / RFU, TFCP2 / Fold change vs veh, TFCP2 / RFU, GMCL1 /// GMCL1P1 / Fold change vs veh, GMCL1 /// GMCL1P1 / RFU, AEBP2 / Fold change vs veh, AEBP2 / RFU, SNHG1 /// SNORD22 /// SNORD25 /// SNORD26 /// SNORD27 /// SNORD28 /// SNORD29 /// SNORD31 / Fold change vs veh, SNHG1 /// SNORD22 /// SNORD25 /// SNORD26 /// SNORD27 /// SNORD28 /// SNORD29 /// SNORD31 / Fold change (Aza/veh), C12orf56 (ProbeSet 11735607_a_at) / Fold change (ACY-1035/veh), C12orf56 (ProbeSet 11735607_a_at) / Fold change (Aza/veh), FGFR1OP (ProbeSet 11751329_s_at) / Fold change (ACY-1035/veh), FGFR1OP (ProbeSet 11751329_s_at) / Fold change (Aza/veh), VPS36 (ProbeSet 11739960_a_at) / Fold change (ACY-1035/veh), VPS36 (ProbeSet 11739960_a_at) / RFU SYPL1 (11715823_x_at) / Fold change /veh SYPL1 (11715823_x_at) / RFU IGFBP7 (11715501_s_at) / Fold change /veh IGFBP7 (11715501_s_at) / RFU REEP3 (11722064_at) / Fold change /veh REEP3 (11722064_at) / RFU IGLL1 (11728026_x_at) / Fold change /veh IGLL1 (11728026_x_at): dose or concentration left out as unconfirmed. To be noted: ProbeSet 11734937_a_at; LIST B.

For `Nc1ccc(-c2cccs2)cc1NC(=O)c1ccc2c(c1)cc(C1CC1)n2CCN1CCOCC1` [ACY-1035], the “Fold change vs veh, CNOT2” value is given as 0.83.
